From the supplement of paper PMC13380429

What was measured:
Conditions in all cases: 72 h
Vero E6 [1] = experiment: drug sensitivity score (DSS) for viability; higher = more toxic; extreme values may be limits of the assay
Caco-2 [2] = experiment: as above
HepG2 [3] = experiment: as above
Calu-3 [4] = experiment: as above
U2OS [5] = experiment: as above
Vero E6 [6] = experiment: cell viability relative to DMSO; higher = less toxic
Caco-2 [7] = experiment: as above
HepG2 [8] = experiment: as above
Calu-3 [9] = experiment: as above
U2OS [10] = experiment: as above
Vero E6 [11] = experiment: relative viability EC50 (midpoint between 100% and the lowest measured viability); higher = less toxic
Caco-2 [12] = experiment: as above
HepG2 [13] = experiment: as above
Calu-3 [14] = experiment: as above
U2OS [15] = experiment: as above

SMILES	drug sensitivity score (Vero E6 [1])	drug sensitivity score (Caco-2 [2])	drug sensitivity score (HepG2 [3])	drug sensitivity score (Calu-3 [4])	drug sensitivity score (U2OS [5])	cell viability (Vero E6 [6]; 1 nM)	cell viability (Vero E6 [6]; 10 nM)	cell viability (Vero E6 [6]; 100 nM)	cell viability (Vero E6 [6]; 1000 nM)	cell viability (Vero E6 [6]; 10000 nM)	cell viability (Caco-2 [7]; 1 nM)	cell viability (Caco-2 [7]; 10 nM)	cell viability (Caco-2 [7]; 100 nM)	cell viability (Caco-2 [7]; 1000 nM)	cell viability (Caco-2 [7]; 10000 nM)	cell viability (HepG2 [8]; 1 nM)	cell viability (HepG2 [8]; 10 nM)	cell viability (HepG2 [8]; 100 nM)	cell viability (HepG2 [8]; 1000 nM)	cell viability (HepG2 [8]; 10000 nM)	cell viability (Calu-3 [9]; 1 nM)	cell viability (Calu-3 [9]; 10 nM)	cell viability (Calu-3 [9]; 100 nM)	cell viability (Calu-3 [9]; 1000 nM)	cell viability (Calu-3 [9]; 10000 nM)	cell viability (U2OS [10]; 1 nM)	cell viability (U2OS [10]; 10 nM)	cell viability (U2OS [10]; 100 nM)	cell viability (U2OS [10]; 1000 nM)	cell viability (U2OS [10]; 10000 nM)	relative viability EC50 (Vero E6 [11])	relative viability EC50 (Caco-2 [12])	relative viability EC50 (HepG2 [13])	relative viability EC50 (Calu-3 [14])	relative viability EC50 (U2OS [15])
CCn1cc(C(=O)O)c(=O)c2ccc(C)nc21 [nalidixic-acid]	0	0	0	0	0	113%	107%	104%	101%	89.4%	96.3%	94.4%	93.2%	99.9%	96.8%	106%	108%	90%	102%	95.6%	96.8%	89%	100%	93%	102%	100%	95.8%	100%	98.3%	104%	> 10 µM	> 10 µM	> 10 µM	> 10 µM	> 10 µM
CC(C)(C)NCC(O)COc1cc(Cl)ccc1Cl (stereo not given) [cloranolol]	0	0	0	0	0	106%	98.8%	100%	95.5%	90%	85.6%	89.4%	106%	112%	88.8%	90.7%	96.2%	94.6%	94.8%	88.7%	95%	88.1%	76.5%	89.9%	92.3%	102%	94.8%	103%	97.1%	106%	> 10 µM	> 10 µM	> 10 µM	> 10 µM	> 10 µM
CCN(CC)C(=O)N[C@H]1C[C@@H]2c3cccc4[nH]cc(c34)C[C@H]2N(C)C1 [terguride]	0	0	0	0	0	105%	106%	104%	99.8%	97%	88.6%	93.3%	108%	97.2%	99.5%	104%	105%	95.9%	92.9%	102%	106%	97.4%	95.2%	105%	115%	96.4%	95.3%	94.5%	99.1%	94.7%	> 10 µM	> 10 µM	> 10 µM	> 10 µM	> 10 µM
CS(=O)(=O)Nc1ccc2oc3c(OC(F)F)ccc(C(=O)Nc4c(Cl)cncc4Cl)c3c2c1 [oglemilast]	0	0	0.6	1.3	0	102%	95.9%	96.2%	90.5%	99.8%	108%	101%	92.2%	103%	90.1%	96.1%	87.9%	93.3%	86%	89.8%	91%	88.4%	100%	92.7%	81.1%	97.6%	104%	97%	101%	94.2%	> 10 µM	> 10 µM	> 10 µM	> 10 µM	> 10 µM
c1cnc(NCc2ccc(CNc3ncccn3)cc2)nc1 [MSX-122]	0	0	0	0	0	101%	98.6%	100%	103%	99.1%	92.9%	100%	107%	112%	99.2%	90.6%	103%	102%	92.3%	101%	104%	100%	109%	99.4%	113%	94.7%	103%	106%	99.4%	99.8%	> 10 µM	> 10 µM	> 10 µM	> 10 µM	> 10 µM
CC1C=CC=CCCC=CC=CC=CC=CC(OC2OC(C)C(O)C(N)C2O)CC2OC(O)(CC(O)C(O)CCC(O)CC(O)CC(O)CC(=O)OC(C)C(C)C1O)CC(O)C2C(=O)O (stereo not given) [nystatin]	0	0	0	0	0	92.9%	93.6%	94.7%	96.1%	107%	98.4%	98.5%	97.4%	97.4%	103%	96.7%	101%	98.7%	96.8%	110%	106%	84.5%	94.6%	104%	109%	102%	99.3%	99%	102%	104%	> 10 µM	> 10 µM	> 10 µM	> 10 µM	> 10 µM
COC(=O)[C@@H](N)CCCNC(=N)N[N+](=O)[O-] [L-NAME]	0	0	0	0	0	97.7%	96.6%	99.9%	98.6%	105%	94.6%	97.3%	94.4%	97.8%	106%	97.4%	104%	94.5%	95.4%	116%	96%	106%	99.6%	94.7%	114%	101%	97.9%	103%	101%	110%	> 10 µM	> 10 µM	> 10 µM	> 10 µM	> 10 µM
CNC(=O)c1cc2c(cn1)[nH]c1ccccc12 [FG-7142]	0	0.8	0	0	0	102%	95.7%	98.2%	100%	101%	97.7%	104%	92.2%	89.8%	88.2%	101%	88.4%	107%	96.3%	110%	96.9%	91.8%	98.2%	100%	103%	98.2%	100%	96.9%	100%	96.9%	> 10 µM	> 10 µM	> 10 µM	> 10 µM	> 10 µM
O=C1O[C@H]([C@@H](O)CO)C(O)=C1O [ASCORBIC ACID]	0	0	0	0	0	99.7%	112%	106%	103%	103%	103%	95.9%	100%	100%	98.4%	99.6%	98.3%	108%	93.4%	101%	105%	95.5%	110%	96.3%	108%	109%	98.8%	99.8%	100%	102%	> 10 µM	> 10 µM	> 10 µM	> 10 µM	> 10 µM
CC(CN(C)C)C(C)(O)Cc1ccc(Cl)cc1 (stereo not given) [clobutinol]	0.1	0	0.1	0	0	101%	98.6%	102%	89.6%	93.2%	99.1%	118%	100%	108%	97.4%	111%	95.5%	105%	97.6%	88.4%	98.7%	106%	106%	104%	98.1%	97.3%	97.4%	97.7%	96.5%	96.9%	> 10 µM	> 10 µM	> 10 µM	> 10 µM	> 10 µM
c1coc(-c2nnc3sc(C4CCCCC4)nn23)c1 [cardionogen-1]	0.3	2.2	4.9	0	0	98.3%	97.1%	95.5%	98%	86.6%	100%	94.7%	104%	81.1%	89.7%	98.7%	97.1%	99.4%	88.3%	44.6%	109%	97.4%	109%	102%	97.1%	95%	100%	95.9%	97.8%	93.3%	> 10 µM	> 10 µM	1.69 µM	> 10 µM	> 10 µM
CC(=O)OC[C@H](N)C(=O)O [O-acetyl-L-serine]	0	0	0	0	0	114%	89.8%	99.2%	103%	104%	104%	109%	90.3%	106%	94.9%	115%	103%	106%	110%	95.2%	111%	97.6%	105%	92.5%	97.1%	104%	104%	99.3%	105%	98.9%	> 10 µM	> 10 µM	> 10 µM	> 10 µM	> 10 µM
Cc1ccc(C[N+](C)(C)C)o1 [5-methylfurmethiodide]	0	0	0	0	0	104%	103%	97.5%	107%	99.9%	99.1%	105%	103%	96.3%	108%	104%	108%	93.8%	103%	90.2%	108%	103%	93.9%	100%	101%	101%	99.7%	102%	98.7%	103%	> 10 µM	> 10 µM	> 10 µM	> 10 µM	> 10 µM
Nc1ncnc2c1ncn2[C@H]1O[C@@H](C(=O)N2CCN(CC(=O)Nc3cccc4c3CNC4=O)CC2)[C@H](O)[C@@H]1O [EB-47]	0	0	0	0.1	0	102%	98.6%	94.7%	92.4%	97.6%	97.8%	103%	104%	94.8%	92.6%	102%	96.3%	103%	102%	93.9%	92%	102%	91.3%	104%	85.7%	99.4%	107%	102%	100%	96.7%	> 10 µM	> 10 µM	> 10 µM	> 10 µM	> 10 µM
